Reference: US7173023B2, “Bicyclic compounds” (Hoffmann-La Roche Inc., priority 2003, dated 2007)

Tests used:
human MAO-B = target: T1, human MAO-B (Homo sapiens, UniProt P27338); experiment: MAO-B enzymatic activity, spectrophotometric assay (tyramine, Amplex Red); format: biochemical; settings: membranes of EBNA cells transfected with human MAO-B cDNA; 30 min preincubation at 37° C., pH 7.4; substrate tyramine
T1 construct: expressed in transfected cells; host or cells: EBNA cells (transient transfection); cell membranes used
T1 sequence (P27338 1-520): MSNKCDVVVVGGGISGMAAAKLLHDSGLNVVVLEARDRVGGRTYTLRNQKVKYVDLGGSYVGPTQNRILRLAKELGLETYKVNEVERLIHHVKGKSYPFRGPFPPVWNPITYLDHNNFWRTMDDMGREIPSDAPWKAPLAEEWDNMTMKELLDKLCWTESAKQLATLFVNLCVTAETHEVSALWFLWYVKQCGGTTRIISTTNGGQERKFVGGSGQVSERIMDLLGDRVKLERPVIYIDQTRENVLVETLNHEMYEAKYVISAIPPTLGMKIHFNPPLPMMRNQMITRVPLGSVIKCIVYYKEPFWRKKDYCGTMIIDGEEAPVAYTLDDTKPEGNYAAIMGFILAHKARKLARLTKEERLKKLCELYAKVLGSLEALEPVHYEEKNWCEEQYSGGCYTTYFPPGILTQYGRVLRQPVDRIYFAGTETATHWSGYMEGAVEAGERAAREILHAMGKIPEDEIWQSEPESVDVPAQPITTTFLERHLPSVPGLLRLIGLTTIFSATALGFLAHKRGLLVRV
Protocol: (§1) The cDNA's encoding human MAO-A and MAO-B were transiently transfected into EBNA cells using the procedure described by Schlaeger and Christensen [Cytotechnology 15:1–13 (1998)]. After transfection, cells were homogenised by means of a Polytron homogenizer in 20 mM Tris HCl buffer, pH 8.0, containing 0.5 mM EGTA and 0.5 mM phenylmethanesulfonyl fluoride. Cell membranes were obtained by centrifugation at 45,000×g and, after two rinsing step with 20 mM Tris HCl buffer, pH 8.0, containing 0.5 mM EGTA, membranes were eventually re-suspended in the above buffer and aliquots stored at −80° C. until use.
(§2) MAO-A and MAO-B enzymatic activity was assayed in 96-well-plates using a spectrophotometric assay adapted from the method described by Zhou and Panchuk-Voloshina [Analytical Biochemistry 253:169–174 (1997)]. Briefly, membrane aliquots were incubated in 0.1 M potassium phosphate buffer, pH 7.4, for 30 min at 37° C. with or without various concentrations of the compounds. After this period, the enzymatic reaction was started by the addition of the MAO substrate tyramine together with 1 U/ml horse-radish peroxidase (Roche Biochemicals) and 80 μM N-acetyl-3,7,-dihydroxyphenoxazine (Amplex Red, Molecular Probes). The samples were further incubated for 30 min at 37° C. in a final volume of 200 μl and absorbance was then determined at a wavelength of 570 nm using a SpectraMax plate reader (Molecular Devices). Background (non-specific) absorbance was determined in the presence of 10 μM clorgyline for MAO-A or 10 μM L-deprenyl for MAO-B.
(§3) IC50 values were determined from inhibition curves obtained using nine inhibitor concentrations in duplicate, by fitting data to a four parameter logistic equation using a computer program.

human MAO-A = target: T2, human MAO-A (Homo sapiens, UniProt P21397); experiment: MAO-A enzymatic activity, spectrophotometric assay (tyramine, Amplex Red); format: biochemical; settings: membranes of EBNA cells transfected with human MAO-A cDNA; 30 min preincubation at 37° C., pH 7.4; substrate tyramine
T2 construct: expressed in transfected cells; host or cells: EBNA cells (transient transfection); cell membranes used
T2 sequence (P21397 1-527): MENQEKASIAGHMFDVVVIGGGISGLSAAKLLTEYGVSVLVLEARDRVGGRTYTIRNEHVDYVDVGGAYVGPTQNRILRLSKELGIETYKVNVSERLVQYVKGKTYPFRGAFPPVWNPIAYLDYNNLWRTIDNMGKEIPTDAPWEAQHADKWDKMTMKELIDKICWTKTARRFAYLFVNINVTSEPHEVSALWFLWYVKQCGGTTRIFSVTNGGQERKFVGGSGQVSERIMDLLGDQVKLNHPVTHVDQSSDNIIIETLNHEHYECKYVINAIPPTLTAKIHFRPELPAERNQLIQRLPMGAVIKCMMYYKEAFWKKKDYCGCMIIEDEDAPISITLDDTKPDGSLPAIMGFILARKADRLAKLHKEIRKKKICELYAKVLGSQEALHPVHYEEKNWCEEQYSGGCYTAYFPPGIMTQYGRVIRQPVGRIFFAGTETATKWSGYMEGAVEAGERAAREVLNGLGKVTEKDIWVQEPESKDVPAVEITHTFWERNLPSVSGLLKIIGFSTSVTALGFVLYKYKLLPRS
Protocol: as §1, §2, §3

CC(=O)N1CCc2ccc(OCc3cccc(F)c3)cc2CC1 [Example 1, 1-[7-(3-Fluoro-benzyloxy)-1,2,4,5-tetrahydro-benzo[d]azepin-3-yl]-ethanone]
IC50 (human MAO-B): 0.082 µM
IC50 (human MAO-A): > 10 µM

COCC(=O)N1CCc2ccc(OCc3cccc(F)c3)cc2CC1 [Example 2, 1-[7-(3-Fluoro-benzyloxy)-1,2,4,5-tetrahydro-benzo[d]azepin-3-yl]-2-methoxy-ethanone]
IC50 (human MAO-B): 0.073 µM
IC50 (human MAO-A): 5.5 µM

NC(=O)C(=O)N1CCc2ccc(OCc3cccc(F)c3)cc2CC1 [Example 3, 2-[7-(3-Fluoro-benzyloxy)-1,2,4,5-tetrahydro-benzo[d]azepin-3-yl]-2-oxo-acetamide]
IC50 (human MAO-B): 0.024 µM
IC50 (human MAO-A): > 10 µM

COC(=O)N1CCc2ccc(OCc3cccc(F)c3)cc2CC1 [Example 5, 7-(3-Fluoro-benzyloxy)-1,2,4,5-tetrahydro-benzo[d]azepine-3-carboxylic Acid Methyl Ester]
IC50 (human MAO-B): 0.068 µM
IC50 (human MAO-A): 4.5 µM

O=CN1CCc2ccc(OCc3cccc(F)c3)cc2CC1 [Example 6, 7-(3-Fluoro-benzyloxy)-1,2,4,5-tetrahydro-benzo[d]azepine-3-carbaldehyde]
IC50 (human MAO-B): 0.007 µM
IC50 (human MAO-A): 4.1 µM

NC(=O)N1CCc2ccc(OCc3cccc(F)c3)cc2CC1 [Example 8, 7-(3-Fluoro-benzyloxy)-1,2,4,5-tetrahydro-benzo[d]azepine-3-carboxylic Acid Amide]
IC50 (human MAO-B): 0.021 µM
IC50 (human MAO-A): > 10 µM

CN1C=Cc2ccc(OCc3cccc(F)c3)cc2CC1=O [Example 13, 8-(3-Fluoro-benzyloxy)-3-methyl-1,3-dihydro-benzo[d]azepin-2-one]
IC50 (human MAO-B): 0.15 µM
IC50 (human MAO-A): 4.6 µM

CC(=O)N1C=Cc2ccc(OCc3cccc(F)c3)cc2CC1=O [Example 15, 3-Acetyl-8-(3-fluoro-benzyloxy)-1,3-dihydro-benzo[d]azepin-2-one]
IC50 (human MAO-B): 0.13 µM
IC50 (human MAO-A): > 9.5 µM
